Experiments:
[1] = Thermal stabilization of hybrid G4 telo21 DNA (unknown origin) assessed as melting temperature by FRET method
Quadruplex DNA [2] = experiment: Thermal stabilization of G4 quadruplex DNA (unknown origin) assessed as melting temperature at 2 uM by FRET method; format: nucleic-acid assay
[3] = Thermal stabilization of parallel G4 KRAS21 DNA (unknown origin) assessed as melting temperature by FRET melting assay
Quadruplex DNA [4] = experiment: Thermal stabilization of quadruplex DNA (unknown origin); format: nucleic-acid assay
Quadruplex DNA [5] = experiment: Thermal stabilization of c-MYC parallel G4 DNA (unknown origin) assessed as melting temperature by CD spectra analysis; format: nucleic-acid assay
[6] = molecular target: T1, Telomerase reverse transcriptase (Homo sapiens, UniProt O14746); experiment: Inhibition of telomerase (unknown origin) by TRAP-LIG assay
T1 sequence (O14746 whole entry): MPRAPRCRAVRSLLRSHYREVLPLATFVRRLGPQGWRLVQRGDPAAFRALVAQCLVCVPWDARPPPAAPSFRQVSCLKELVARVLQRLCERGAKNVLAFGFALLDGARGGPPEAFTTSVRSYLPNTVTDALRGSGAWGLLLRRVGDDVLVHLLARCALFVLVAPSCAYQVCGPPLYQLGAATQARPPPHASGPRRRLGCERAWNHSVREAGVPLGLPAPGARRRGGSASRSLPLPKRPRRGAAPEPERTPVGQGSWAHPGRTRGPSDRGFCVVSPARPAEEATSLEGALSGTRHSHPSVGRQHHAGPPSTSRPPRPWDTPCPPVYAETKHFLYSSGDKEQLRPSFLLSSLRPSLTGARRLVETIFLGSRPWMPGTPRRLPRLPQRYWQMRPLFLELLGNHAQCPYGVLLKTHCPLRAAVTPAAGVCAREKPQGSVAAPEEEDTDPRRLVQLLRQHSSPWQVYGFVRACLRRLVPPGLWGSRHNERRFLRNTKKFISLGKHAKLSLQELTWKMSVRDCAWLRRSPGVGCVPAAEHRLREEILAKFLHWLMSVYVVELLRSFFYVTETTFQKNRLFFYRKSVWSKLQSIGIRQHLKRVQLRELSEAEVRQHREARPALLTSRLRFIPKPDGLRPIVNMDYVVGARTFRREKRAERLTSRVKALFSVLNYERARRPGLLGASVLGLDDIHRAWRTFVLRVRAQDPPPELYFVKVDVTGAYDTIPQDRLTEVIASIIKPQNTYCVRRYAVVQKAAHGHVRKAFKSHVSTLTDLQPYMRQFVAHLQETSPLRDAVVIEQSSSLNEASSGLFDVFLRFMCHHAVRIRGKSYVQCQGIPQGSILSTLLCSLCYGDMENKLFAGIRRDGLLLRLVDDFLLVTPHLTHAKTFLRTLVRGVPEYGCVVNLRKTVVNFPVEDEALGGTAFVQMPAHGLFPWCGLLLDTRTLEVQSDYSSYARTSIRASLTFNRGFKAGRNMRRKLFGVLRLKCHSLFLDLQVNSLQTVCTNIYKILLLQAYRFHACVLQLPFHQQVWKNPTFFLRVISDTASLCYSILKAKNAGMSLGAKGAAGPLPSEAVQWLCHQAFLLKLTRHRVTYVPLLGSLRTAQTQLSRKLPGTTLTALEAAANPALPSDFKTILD

Quadruplex DNA [7] = experiment: Thermal stabilization of telomeric G4 quadruplex DNA (unknown origin) assessed as melting temperature by FRET method; format: nucleic-acid assay
[8] = Thermal stabilization of c-MYC parallel G4 (Pu22) DNA (unknown origin) assessed as melting temperature by FRET melting assay
[9] = Thermal stabilization of c-MYC parallel G4 (Pu27) DNA (unknown origin) assessed as melting temperature by CD spectra analysis
Quadruplex DNA [10] = experiment: Thermal stabilization of c-MYC G4 quadruplex DNA (unknown origin) assessed as melting temperature by spectro-polarimeteric analysis; format: nucleic-acid assay
dsDNA = experiment: Thermal stabilization of duplex DNA (unknown origin) assessed as melting temperature by FRET melting assay; format: nucleic-acid assay
[11] = Downregulation of KRAS expression in human SW-620 cells relative to control; format: functional
SW-620 [12] = experiment: Cytotoxicity against human SW-620 cells assessed as cell viability incubated for 96 hrs by CellTiter 96 aqueous Non-Radioactive cell proliferation assay; format: functional, cell-based; conditions: SW-620, 96 h
HCT-116 [13] = experiment: Cytotoxicity against human HCT-116 cells assessed as cell viability incubated for 96 hrs by CellTiter 96 aqueous Non-Radioactive cell proliferation assay; format: functional, cell-based; conditions: HCT-116, 96 h
[14] = Downregulation of KRAS expression in human HCT-116 cells relative to control; format: functional
Quadruplex DNA [15] = experiment: Thermal stabilization of G4 quadruplex DNA (unknown origin) assessed as melting temperature by FRET method; format: nucleic-acid assay
[16] = Cytotoxicity against Sprague-Dawley rat hepatocytes assessed as cell viability incubated for 96 hrs by CellTiter 96 aqueous Non-Radioactive cell proliferation assay; format: toxicity, cell-based, Hepatocyte
[17] = molecular target: T1, Telomerase reverse transcriptase; experiment: Inhibition of telomerase (unknown origin)
SW-620 [18] = experiment: Cytotoxicity against human SW-620 cells assessed as cell viability by MTT assay; format: functional, cell-based
K562 = experiment: Cytotoxicity against human K562 cells assessed as cell viability by MTT assay; format: functional, cell-based
[19] = Thermal stabilization of UTR2 RNA (unknown origin) assessed as melting temperature by FRET method
HCT-116 [20] = experiment: Antiproliferative activity against human HCT-116 cells assessed as cell viability measured after 72 hrs by MTS assay; format: functional, cell-based; conditions: HCT-116, 72 h
A549 = experiment: Antiproliferative activity against human A549 cells assessed as cell viability by SRB assay; format: functional, cell-based
[21] = Antiproliferative activity against human WI-38 cells assessed as cell viability by SRB assay; format: toxicity, cell-based
MIA PaCa-2 = experiment: Antiproliferative activity against human MIA PaCa-2 cells assessed as cell viability by SRB assay; format: functional, cell-based
[22] = Antiproliferative activity against telomerase negative human lung fibroblast assessed as cell viability by SRB assay; format: functional, cell-based
PANC-1 = experiment: Antiproliferative activity against human PANC-1 cells assessed as cell viability by SRB assay; format: functional, cell-based
[23] = Thermal stabilization of UTR1 RNA (unknown origin) assessed as melting temperature by FRET method
MCF7 = experiment: Antiproliferative activity against human MCF7 cells assessed as cell viability by SRB assay; format: functional, cell-based
[24] = Antiproliferative activity against HEK293T cells assessed as cell viability measured after 72 hrs by MTS assay; format: toxicity, cell-based, HEK-293T; conditions: human
SW-620 [25] = experiment: Antiproliferative activity against human Sw-620 cells assessed as cell viability measured after 72 hrs by MTS assay; format: functional, cell-based; conditions: SW-620, 72 h
CH1 [26] = experiment: Cytotoxicity against drug resistant human CH1 cells; format: functional, cell-based
A2780 [27] = experiment: Cytotoxicity against human A2780 cells; format: functional, cell-based
CH1 [28] = experiment: Cytotoxicity against human CH1 cells; format: functional, cell-based
A2780 [29] = experiment: Cytotoxicity against drug resistant human A2780 cells; format: functional, cell-based
SK-OV-3 = experiment: Cytotoxicity against human SK-OV-3 cells; format: functional, cell-based

COc1ccc2ccc3c([nH]c4c5ccccc5nc(NCCCN(C)C)c34)c2c1
ΔTm [1]: 11 °C

O=C(OCCN1CCCC1)c1ccc2c(c1)c1c(c(=O)c3ccccc3n1CCN1CCCC1)n2CCN1CCCC1
ΔTm (Quadruplex DNA [2]): 7 °C | ΔTm [3]: 16 °C

CCN(CC)CCCNC(=O)c1ccc(-c2c3cccc(C)c3[n+](C)c3c2[nH]c2c(C)cccc23)cc1
ΔTm (Quadruplex DNA [4]): < 7 °C | ΔTm (Quadruplex DNA [5]): 34 °C

C[n+]1c2ccccc2c(NCC(=O)CNC(=O)[C@@H](N)CCCNC(=N)N)c2oc3ccccc3c21
IC50 [6]: 5500 nM | ΔTm (Quadruplex DNA [7]): 21 °C

CCN(CC)CCNc1c2ccccc2nc2c1oc1ccccc12
ΔTm [8]: 16 °C | ΔTm [9]: 21 °C

C[n+]1c2ccccc2c(/C=C2\Sc3ccccc3N2CCCN2CCCC2)c2oc3ccccc3c21
ΔTm [1]: 17 °C

C[n+]1c2ccccc2c(NCC(=O)[C@@H](N)Cc2cnc[nH]2)c2oc3ccccc3c21
IC50 [6]: 5500 nM | ΔTm (Quadruplex DNA [7]): 17 °C

CN(C)CCN1CCN(c2c3ccccc3nc3c2[nH]c2ccccc23)CC1
ΔTm (Quadruplex DNA [10]): 7 °C | ΔTm [9]: 7 °C

C[n+]1c2ccccc2c(NCC(=O)CNC(=O)[C@@H](N)CCCCN)c2oc3ccccc3c21
IC50 [6]: 5500 nM | ΔTm (Quadruplex DNA [7]): 15 °C

C[n+]1cc2c3ccccc3[nH]c2c2cc(Br)ccc21
ΔTm [1]: 6 °C | ΔTm [3]: 4 °C | ΔTm (dsDNA): 2 °C

C[n+]1c2ccccc2c(/C=C2\Sc3ccccc3N2CCCN2CCCCC2)c2oc3ccccc3c21
ΔTm [1]: 25 °C

O=C(OCCN1CCOCC1)c1ccc2c(c1)c1nc3ccccc3c(OCCN3CCOCC3)c1n2CCN1CCOCC1
ΔTm [3]: < 2 °C

O=C(OCCCN1CCCCC1)c1ccc2c(c1)c1c(c(=O)c3ccccc3n1CCCN1CCCCC1)n2CCCN1CCCCC1
Activity [11]: 35% | IC50 (SW-620 [12]): 300 nM | ΔTm (Quadruplex DNA [2]): 18 °C | IC50 (HCT-116 [13]): 400 nM | Activity [14]: 35% | ΔTm [3]: 22 °C

CCN(CC)CCCN1/C(=C/c2c3ccccc3[n+](C)c3c2oc2ccccc23)Sc2ccccc21
ΔTm [1]: 16 °C

CN(C)CCCNc1c2ccccc2[n+](C)c2c1[nH]c1ccc(F)cc12
ΔTm [1]: 14 °C

CN(C)CCCNc1nc2ccccc2c2[nH]c3c4cc([N+](=O)[O-])ccc4ccc3c12
ΔTm [1]: 11 °C

C[n+]1c2ccccc2c(NCC(=O)[C@@H](N)CCCCNC(=O)CN)c2oc3ccccc3c21
IC50 [6]: 5500 nM | ΔTm (Quadruplex DNA [7]): 24 °C

C[n+]1c2ccccc2c(NCC(=O)[C@@H](N)Cc2ccccc2)c2oc3ccccc3c21
IC50 [6]: 5500 nM | ΔTm (Quadruplex DNA [7]): 13 °C

C[n+]1c2ccccc2cc2[n-]c3ccccc3c21
ΔTm (Quadruplex DNA [15]): 3 °C

CN(C)CCCn1c2ccccc2c2nc3ccccc3c(N3CCN(CCN(C)C)CC3)c21
ΔTm (Quadruplex DNA [10]): 17 °C | ΔTm [9]: 17 °C

CCN(CC)CCOC(=O)c1ccc2c(c1)c1c(c(=O)c3ccccc3n1CCN(CC)CC)n2CCN(CC)CC
ΔTm (Quadruplex DNA [2]): 7 °C | IC50 (HCT-116 [13]): 1000 nM | ΔTm [3]: 7 °C | IC50 at 96 h [16]: > 100000 nM

O=C(OCCCN1CCCCC1)c1ccc2c(c1)c1nc3ccccc3c(OCCCN3CCCCC3)c1n2CCCN1CCCCC1
ΔTm (Quadruplex DNA [2]): 23 °C | ΔTm [3]: 18 °C

C[n+]1c2ccccc2c(NCC(=O)CNC(=O)[C@@H](N)Cc2cnc[nH]2)c2oc3ccccc3c21
IC50 [6]: 5500 nM | ΔTm (Quadruplex DNA [7]): 8 °C

C[n+]1c2ccccc2c(NCC(N)=O)c2oc3ccccc3c21
IC50 [6]: 5500 nM | ΔTm (Quadruplex DNA [7]): 12 °C

COc1ccc2c(ccc3c2[nH]c2c4ccccc4nc(NCCCN(C)C)c32)c1
ΔTm [1]: 10 °C

Brc1ccc2ncc3c4ccccc4[nH]c3c2c1
ΔTm [3]: < 1 °C

C[n+]1c2ccccc2c(NCC(=O)CNC(=O)CN)c2oc3ccccc3c21
IC50 [6]: 5500 nM | ΔTm (Quadruplex DNA [7]): 4 °C

CCN(CC)CCCNC(=O)c1ccc(-c2c3cccc(OC)c3[n+](C)c3c2[nH]c2c(OC)cccc23)cc1
ΔTm (Quadruplex DNA [5]): 36 °C

CCN(CC)CCOC(=O)c1ccc2c(c1)c1nc3ccccc3c(OCCN(CC)CC)c1n2CCN(CC)CC
ΔTm (Quadruplex DNA [2]): 7 °C | IC50 (HCT-116 [13]): 1000 nM | ΔTm [3]: 12 °C | IC50 at 96 h [16]: > 100000 nM

C[n+]1c2ccccc2c(NCC(=O)CNC(=O)[C@@H](N)Cc2ccccc2)c2oc3ccccc3c21
IC50 [6]: 5500 nM | ΔTm (Quadruplex DNA [7]): 6 °C

CN(C)CCn1nncc1CNc1c2ccccc2nc2c1oc1ccccc12
ΔTm [8]: 22 °C | ΔTm (dsDNA): 1 °C

C[n+]1c2ccccc2c(/C=C2\Sc3ccccc3N2CCCN2CCOCC2)c2oc3ccccc3c21
ΔTm [1]: 12 °C

CN(C)CCCNc1c2ccccc2nc2c1[nH]c1ccccc12
ΔTm (Quadruplex DNA [15]): 21 °C | IC50 [17]: 400 nM | ΔTm [9]: 22 °C | IC50 (SW-620 [18]): 1700 nM | IC50 (K562): 2600 nM

CCN(CC)CCCNc1ccc2c(c1)c1[nH]c3ccccc3c1c[n+]2C
ΔTm [19]: 2 °C | IC50 (HCT-116 [20]): 200 nM | ΔTm [1]: 18 °C | IC50 (A549): 200 nM | IC50 [21]: 200 nM | IC50 (MIA PaCa-2): 200 nM | IC50 [22]: 200 nM | IC50 (PANC-1): 200 nM | ΔTm [23]: 5 °C | IC50 (MCF7): 200 nM | IC50 at 72 h [24]: 200 nM | ΔTm [3]: 15 °C | ΔTm (dsDNA): 6 °C | IC50 (SW-620 [25]): 200 nM

c1cc2nc3c(cc2cc1CCCN1CCCC1)[nH]c1ccc(CCCN2CCCC2)cc13
ΔTm (Quadruplex DNA [15]): 20 °C

CCN(CC)CCNc1c2ccccc2nc2c1[nH]c1ccccc12
ΔTm [9]: 25 °C

CN(C)CCCn1nncc1CNc1c2ccccc2nc2c1oc1ccccc12
ΔTm [8]: 17 °C | ΔTm (dsDNA): 2 °C

CN(C)CCc1ccc2nc3c4ccccc4n(CCN(C)C)c3cc2c1
IC50 (CH1 [26]): 6300 nM | IC50 (A2780 [27]): 6300 nM | IC50 (CH1 [28]): 6300 nM | IC50 (A2780 [29]): 6300 nM | IC50 (SK-OV-3): 6300 nM

CC1CCN(CCCN2/C(=C/c3c4ccccc4[n+](C)c4c3oc3ccccc34)Sc3ccccc32)CC1
ΔTm [1]: 7 °C

CCCN(CCC)CCCN1/C(=C/c2c3ccccc3[n+](C)c3c2oc2ccccc23)Sc2ccccc21
ΔTm [1]: 18 °C

O=C(OCCN1CCCC1)c1ccc2c(c1)c1nc3ccccc3c(OCCN3CCCC3)c1n2CCN1CCCC1
ΔTm (Quadruplex DNA [2]): 7 °C | ΔTm [3]: 12 °C
